{
  "source": "patent EP0434979B1",
  "about": "“Peptide derivatives useful as antagonists of bombesin and gastrin-releasing peptide” (MERRELL DOW PHARMACEUTICALS INC., priority 1989, dated 1991)",
  "key": {"bombesin/GRP receptor [1]": {"molecular_target": "T1, bombesin/GRP receptor (Mus musculus, UniProt P21729)", "T1 construct": "Pancreata from mice were pooled and chopped at 350 µm with a tissue chopper; from tissue; host or cells: chopped mouse pancreas", "T1 sequence (P21729 whole entry)": "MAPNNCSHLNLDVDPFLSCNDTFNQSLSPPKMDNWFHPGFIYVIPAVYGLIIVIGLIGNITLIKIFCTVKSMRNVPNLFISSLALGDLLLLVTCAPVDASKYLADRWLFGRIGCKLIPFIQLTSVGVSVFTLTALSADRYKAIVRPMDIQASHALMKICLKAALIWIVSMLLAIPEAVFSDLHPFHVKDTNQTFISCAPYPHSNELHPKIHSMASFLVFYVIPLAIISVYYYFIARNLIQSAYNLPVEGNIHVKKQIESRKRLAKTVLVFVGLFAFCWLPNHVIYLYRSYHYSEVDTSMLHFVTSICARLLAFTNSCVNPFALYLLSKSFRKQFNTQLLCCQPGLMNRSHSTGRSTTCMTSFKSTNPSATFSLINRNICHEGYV", "test": "Competition at the receptor for iodinated GRP (binding to murine pancreatic membranes)", "parameters": "species or system mice", "details": "for Kd: Kd (nM); for pKd: read-out: Kd", "method": "The pancreata from one or more mice were pooled, minced, and homogenized in 50 mM HEPES (pH 7.4) containing 120 mM NaCl and 5 mM KCl at 4°C and centrifuged at 37,500 X g for 15 minutes. The pellet was resuspended in 50 mM HEPES (pH 7.4) containing 10 mM EDTA and 300 mM KCl and incubated for 30 minutes at 4°C. The suspension was centrifuged as above and the pellet was washed two times in 50 mM HEPES (pH 7.4) containing protease inhibitors (10 µM phenylmethylsulfonyl fluoride, 1 µM thiorphan, 40 µg/ml bacitracin, 10mM iodoacetimide and 4 µg/ml leupeptin), and again centrifuged. The tissue was then resuspended in incubation buffer (1ml per 4 mg pancreas) and incubated for 15 minutes at room temperature, then 250 µl was added to each assay tube to commence the assay. […] The assay was allowed to proceed to equilibrium for 90 minutes at room temperature. After this time, the contents of each tube was rapidly filtered over Whatman GF/B filters presoaked in 0.1% polyethyleneimine and the filters were rapidly washed three times with ice-cold 50 mM HEPES (pH 7.4). Filter-bound radioactivity was quantitated in a gamma counter. […] Affinity and maximal binding were calculated with Ligand (Biosoft, Cambridge, UK) (Figure 1 and Figure 2).\nBinding was assayed in triplicate using 0.1 […] and the indicated concentrations of peptide. The abscissa (x-axis) logarithmically indicates the concentration of agonists or antagonist of the GRP receptor."}, "bombesin/GRP receptor [2]": {"molecular_target": "T1, bombesin/GRP receptor", "test": "Phosphatidylinositol (PI) turnover in chopped murine pancreas, alone (agonism) or before GRP (antagonism)", "format": "cell-based, mice", "parameters": "key to PI Turnover Agonist / PI Turnover Antag.: \"+\" indicates activity; \"-\" indicates no activity", "details": "for PI Turnover Antag.: ability to block GRP-stimulated PI turnover, pretreatment with 1 uM potential antagonist; for PI Turnover Antag. / PI Turnover Agonist: murine pancreas; for PI Turnover Agonist: ability to stimulate PI turnover", "method": "Pancreata from mice were pooled and chopped at 350 µm with a tissue chopper. The chopped tissue was washed twice with Krebs-Hepes buffer, then incubated for 30 minutes in 37°C Krebs-Hepes buffer with fresh buffer after 15 minutes. The tissue was then incubated in this buffer containing 100-200 µCi of ³H-inositol at 37°C for 1 hour. The tissue was then washed twice and incubated for another 30 minutes in Krebs-Hepes buffer (containing 10 mM Li⁺) at 37°C with fresh buffer change after 15 minutes. Portions of the tissue mass (approximately 10 mg per assay tube) were then placed in Li⁺ buffer with protease inhibitors, (40 µg/ml bacitracin,4 µg/ml leupeptin, 4 µg/ml chymostatin, 20 µg/ml thiorphan), 0.1% BSA, and then 0.1-1000 nM peptide was added in 25 µl in a final volume of 250 µl. […] After 60 minutes at room temperature, the phosphatidylinositol turnover was terminated by the addition of 940 µl chloroform:methanol (1:2), followed by 310 µl chloroform, followed by 310 µl water. Each tube was then vortexed for 5 seconds and then centrifuged at 2500 x g for 8 minutes to separate the phases. 900 µl of the top (aqueous) phase was then mixed with 2.1 ml water and loaded onto a 0.5 ml Biorad AG-1X8 (formate) ion exchange column. 50 µl of the bottom phase (chloroform) was withdrawn from each tube and placed in a counting vial, dried, and counted in scintillation fluid. The material on the columns was washed in order with: 1) 10 ml of water 2) 5 ml of 5 mM disodium tetraborate/60 mM sodium formate 3) 10 ml of 1 M ammonium formate in 0.1 M formic acid. The final (third) wash was collected and one ml was mixed with 10 ml of Bio-Safe scintillant and counted. The ratio of these counts (total inositol phosphates) to the corresponding organic phase counts was then calculated for each sample. The ratios in the presence of test compound and/or standards were then compared to the ratios for control tubes (i.e., no stimulating agonist). Dose-response lines were constructed and the abilities of test compounds to stimulate or to inhibit GRP induced phosphatidylinositol turnover were determined by graphical analysis or with the aid of a computer program and are illustrated in Figures 3 and 4.\nThe abscissa (x-axis) logarithmically indicates the concentration of peptide present. The ordinate (y-axis) indicates the observed PI turnover as a percentage of control. Values are mean ± standard error of triplicate determinations; where not shown, the errors are ≤the size of the data points.\nFigure 4 illustrates the ability of (Phe₁₃[CH₂s]Leu₁₄)bombesin to antagonize GRP-induced PI turnover in murine pancreas (Example 2). The abscissa (x-axis) logarithmically indicates the concentration of peptide present. The ordinate (y-axis) indicates the observed PI turnover as a percentage of control. […] Data are the mean ± standard error of triplicate determinations; where not shown, the errors are ≤ the size of the data points."}, "[3]": {"details": "receptor affinity, competition for iodinated GRP binding, murine pancreatic membranes"}, "[4]": {"details": "LIGAND analysis, 0.1 nM iodinated GRP, triplicate, murine pancreatic membranes (Figure 2)"}},
  "note": "pKd: −log10 of the molar value. Like-named read-outs stand apart in the source and are kept apart here. Where a SMILES comes first, the peptide text is derived from it. [ ]: non-standard residue; d: D form. The star is where a group is joined. Pheψ(CH2S)LeuNH2 = CC(C)C[C@H](SC[C@H](Cc1ccccc1)N*)C(N)=O; pGlu = O=C1CC[C@@H](C(=O)O)N1",
  "data": [
    {"smiles": "CC(C)C[C@@H](C(N)=O)[S+]([O-])C[C@H](Cc1ccccc1)NC(=O)[C@H](Cc1c[nH]cn1)NC(=O)CNC(=O)[C@@H](NC(=O)[C@H](C)NC(=O)[C@H](Cc1c[nH]c2ccccc12)NC(=O)[C@H](CCC(N)=O)NC(=O)[C@@H]1CCC(=O)N1)C(C)C", "note": "(single isomer, unassigned) [pQ Q W A V G H FΨ[CH₂S(O)]^IIL#]", "values": [
      {"measurement": "Kd", "setting": "bombesin/GRP receptor [1]; [3]", "value": 1, "unit": "nM"}
    ]},
    {"smiles": "CC(C)C[C@@H](C(N)=O)[S+]([O-])C[C@H](Cc1ccccc1)NC(=O)[C@H](Cc1c[nH]cn1)NC(=O)CNC(=O)[C@@H](NC(=O)[C@H](C)NC(=O)[C@H](Cc1c[nH]c2ccccc12)NC(=O)[C@H](CCC(N)=O)NC(=O)[C@@H]1CCC(=O)N1)C(C)C", "note": "(single isomer, unassigned) [pQ Q W A V G H FΨ[CH₂S(O)]^IL#]", "values": [
      {"measurement": "Kd", "setting": "bombesin/GRP receptor [1]; [3]", "value": 2, "unit": "nM"}
    ]},
    {"smiles": "CC(C)C[C@H](NC(=O)[C@H](Cc1ccccc1)NC(=O)[C@H](Cc1c[nH]cn1)NC(=O)CNC(=O)[C@@H](NC(=O)[C@H](C)NC(=O)[C@H](Cc1c[nH]c2ccccc12)NC(=O)[C@H](CCC(N)=O)NC(=O)[C@H](CC(N)=O)NC(=O)CNC(=O)[C@H](CC(C)C)NC(=O)[C@H](CCCNC(=N)N)NC(=O)[C@H](CCC(N)=O)NC(=O)[C@@H]1CCC(=O)N1)C(C)C)C(N)=O", "note": "[(Phe₁₃Leu₁₄) bombesin, reference compound] ([pGlu]QRLGNQWAVGHFL-NH2)", "values": [
      {"measurement": "pKd", "setting": "bombesin/GRP receptor [1]; [4]", "value": 10.00}
    ]},
    {"smiles": "CC(=O)N[C@H](Cc1ccccc1)C(=O)N[C@@H](CCC(N)=O)C(=O)N[C@@H](Cc1c[nH]c2ccccc12)C(=O)N[C@@H](C)C(=O)N[C@H](C(=O)N[C@H](C)C(=O)N[C@@H](Cc1c[nH]cn1)C(=O)N[C@H](CS[C@@H](CC(C)C)C(N)=O)Cc1ccccc1)C(C)C", "note": "[Acf Q W A V a H FΨ[CH₂S]L#, Ac-D-Phe-Gln-Trp-Ala-Val-D-Ala-His-PheΨ[CH₂S]Leu-NH₂] (Ac-[dF]QWAV[dA]H-{Pheψ(CH2S)LeuNH2})", "values": [
      {"measurement": "PI Turnover Antag.", "setting": "bombesin/GRP receptor [2]", "value": "+"},
      {"measurement": "PI Turnover Agonist", "setting": "bombesin/GRP receptor [2]", "value": "-"}
    ]},
    {"smiles": "CC(C)C[C@H](NC(=O)[C@H](CCCNC(=N)N)NC(=O)[C@H](CCC(N)=O)NC(=O)[C@@H]1CCC(=O)N1)C(=O)NCC(=O)N[C@@H](CC(N)=O)C(=O)N[C@@H](CCC(N)=O)C(=O)N[C@@H](Cc1c[nH]c2ccccc12)C(=O)N[C@@H](C)C(=O)N[C@H](C(=O)NCC(=O)N[C@@H](Cc1c[nH]cn1)C(=O)N[C@H](CS[C@@H](CC(C)C)C(N)=O)Cc1ccccc1)C(C)C", "note": "[pQ Q R L G N Q W A V G H FΨ[CH₂S]L#] ([pGlu]QRLGNQWAVGH-{Pheψ(CH2S)LeuNH2})", "values": [
      {"measurement": "pKd", "setting": "bombesin/GRP receptor [1]; [4]", "value": 8.52},
      {"measurement": "pKd", "setting": "bombesin/GRP receptor [1]; [3]", "value": 8.52},
      {"measurement": "stimulation of phosphatidylinositol (PI) turnover (agonist activity)", "setting": "bombesin/GRP receptor [2]; PI turnover as percentage of control, dose-response, triplicate (Figure 3)", "value": "no agonist activity"},
      {"measurement": "PI Turnover Antag.", "setting": "bombesin/GRP receptor [2]", "value": "+"},
      {"measurement": "PI Turnover Agonist", "setting": "bombesin/GRP receptor [2]", "value": "-"},
      {"measurement": "antagonism of GRP-induced PI turnover", "setting": "bombesin/GRP receptor [2]; preincubation for 30 minutes with 1000 nM peptide, then 1-1000 nM GRP, murine pancreas (Figure 4)", "value": "reduces the stimulation of PI turnover"}
    ]},
    {"smiles": "CCCC[C@H](SC[C@H](Cc1ccccc1)NC(=O)[C@H](Cc1c[nH]cn1)NC(=O)CNC(=O)[C@@H](NC(=O)[C@H](C)NC(=O)[C@H](Cc1c[nH]c2ccccc12)NC(=O)[C@H](CCC(N)=O)NC(=O)[C@@H]1CCC(=O)N1)C(C)C)C(N)=O", "note": "[pQ Q W A V G H FΨ [CH₂S]Z#, pGlu-Gln-Trp-Ala-Val-Gly- His-Phe Ψ(CH₂S]Nle-NH₂]", "values": [
      {"measurement": "Kd", "setting": "bombesin/GRP receptor [1]; [3]", "value": 4, "unit": "nM"}
    ]},
    {"smiles": "CC(C)C[C@H](SC[C@H](Cc1ccccc1)NC(=O)[C@H](Cc1c[nH]cn1)NC(=O)CNC(=O)[C@@H](NC(=O)[C@H](C)NC(=O)[C@H](Cc1c[nH]c2ccccc12)NC(=O)[C@H](CCC(N)=O)NC(=O)[C@@H]1CCC(=O)N1)C(C)C)C(N)=O", "note": "[pQ Q W A V G H FΨCH₂S]L#]", "values": [
      {"measurement": "Kd", "setting": "bombesin/GRP receptor [1]; [3]", "value": 3, "unit": "nM"}
    ]}
  ]
}
